Assay results from patent publication US11866720B2, “Transgenic or non-transgenic plants with mutated protoporphyrinogen oxidase having increased tolerance to herbicides” (priority 2013, dated 2024).
Where a chain is given by its changes, count along the chain named.

Key:
Test in all cases: biochemical
[1] = molecular target: T1, recombinant wildtype and mutated PPO (Amaranthus PPO2: PPX2L_WC SEQ ID NO 2, PPX2L_AC SEQ ID NO 4, dG210 SEQ ID NO 6 & 8) (Amaranthus tuberculatus, UniProt Q0NZW9, R128A/F420L, form not given)
T1 sequence (Q0NZW9 1-534 R128A/F420L): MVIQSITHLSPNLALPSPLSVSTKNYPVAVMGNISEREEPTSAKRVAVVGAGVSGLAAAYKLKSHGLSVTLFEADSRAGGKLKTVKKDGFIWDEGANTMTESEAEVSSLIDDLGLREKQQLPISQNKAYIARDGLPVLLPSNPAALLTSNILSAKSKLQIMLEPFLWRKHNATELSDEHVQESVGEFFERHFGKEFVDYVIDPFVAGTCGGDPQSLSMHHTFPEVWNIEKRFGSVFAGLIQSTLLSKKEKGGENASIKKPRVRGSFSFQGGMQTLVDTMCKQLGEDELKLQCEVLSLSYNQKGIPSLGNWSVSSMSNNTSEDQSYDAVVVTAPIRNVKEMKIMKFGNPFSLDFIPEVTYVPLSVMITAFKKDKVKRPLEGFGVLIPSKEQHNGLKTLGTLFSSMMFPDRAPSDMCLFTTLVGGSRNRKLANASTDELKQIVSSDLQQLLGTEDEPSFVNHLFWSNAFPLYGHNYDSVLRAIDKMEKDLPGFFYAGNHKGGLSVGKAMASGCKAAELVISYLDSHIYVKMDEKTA

[2] = molecular target: T2, recombinant wildtype and mutated PPO (Amaranthus PPO2: PPX2L_WC SEQ ID NO 2, PPX2L_AC SEQ ID NO 4, dG210 SEQ ID NO 6 & 8) (Amaranthus tuberculatus, UniProt Q0NZW9)
T2 sequence (Q0NZW9 1-534): T1 sequence (Q0NZW9 1-534 R128A/F420L) with A128R, L420F

[3] = molecular target: recombinant wildtype and mutated PPO (Amaranthus PPO2: PPX2L_WC SEQ ID NO 2, PPX2L_AC SEQ ID NO 4, dG210 SEQ ID NO 6 & 8) (Amaranthus tuberculatus, UniProt Q0NZW9, D133A/F420M/R128S); details: IC50 (M)
Chain of recombinant wildtype and mutated PPO (Amaranthus PPO2: PPX2L_WC SEQ ID NO 2, PPX2L_AC SEQ ID NO 4, dG210 SEQ ID NO 6 & 8) (Amaranthus tuberculatus, UniProt Q0NZW9, D133A/F420M/R128S) (Q0NZW9 1-534 R128S/D133A/F420M): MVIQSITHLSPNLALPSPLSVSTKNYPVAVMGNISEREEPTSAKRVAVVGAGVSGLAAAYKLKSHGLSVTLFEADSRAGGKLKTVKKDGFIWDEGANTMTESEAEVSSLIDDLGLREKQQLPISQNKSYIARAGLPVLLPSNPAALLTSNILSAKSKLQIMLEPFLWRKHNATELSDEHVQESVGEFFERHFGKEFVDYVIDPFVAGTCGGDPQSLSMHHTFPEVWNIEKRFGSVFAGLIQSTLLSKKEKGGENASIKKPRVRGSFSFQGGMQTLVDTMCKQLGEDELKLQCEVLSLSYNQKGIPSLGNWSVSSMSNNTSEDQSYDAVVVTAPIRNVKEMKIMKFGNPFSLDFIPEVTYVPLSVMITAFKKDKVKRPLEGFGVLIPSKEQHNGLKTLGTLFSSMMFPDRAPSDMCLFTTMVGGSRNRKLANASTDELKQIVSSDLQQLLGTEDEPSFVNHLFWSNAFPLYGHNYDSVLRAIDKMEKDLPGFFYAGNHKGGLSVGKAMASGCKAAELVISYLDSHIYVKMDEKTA

[4] = molecular target: recombinant wildtype and mutated PPO (Amaranthus PPO2: PPX2L_WC SEQ ID NO 2, PPX2L_AC SEQ ID NO 4, dG210 SEQ ID NO 6 & 8) (Amaranthus tuberculatus, UniProt Q0NZW9, D133A/F420M/R128G); details: IC50 (M)
Chain of recombinant wildtype and mutated PPO (Amaranthus PPO2: PPX2L_WC SEQ ID NO 2, PPX2L_AC SEQ ID NO 4, dG210 SEQ ID NO 6 & 8) (Amaranthus tuberculatus, UniProt Q0NZW9, D133A/F420M/R128G) (Q0NZW9 1-534 R128G/D133A/F420M): as the sequence (Q0NZW9 1-534 R128S/D133A/F420M) above, with S128G counted along it

[5] = molecular target: recombinant wildtype and mutated PPO (Amaranthus PPO2: PPX2L_WC SEQ ID NO 2, PPX2L_AC SEQ ID NO 4, dG210 SEQ ID NO 6 & 8) (Amaranthus tuberculatus, UniProt Q0NZW9, D133A/F420V/R128H); details: IC50 (M)
Chain of recombinant wildtype and mutated PPO (Amaranthus PPO2: PPX2L_WC SEQ ID NO 2, PPX2L_AC SEQ ID NO 4, dG210 SEQ ID NO 6 & 8) (Amaranthus tuberculatus, UniProt Q0NZW9, D133A/F420V/R128H) (Q0NZW9 1-534 R128H/D133A/F420V): as the sequence (Q0NZW9 1-534 R128S/D133A/F420M) above, with S128H, M420V counted along it

[6] = molecular target: recombinant wildtype and mutated PPO (Amaranthus PPO2: PPX2L_WC SEQ ID NO 2, PPX2L_AC SEQ ID NO 4, dG210 SEQ ID NO 6 & 8) (Amaranthus tuberculatus, UniProt Q0NZW9, D133A/F420I/R128H); details: IC50 (M)
Chain of recombinant wildtype and mutated PPO (Amaranthus PPO2: PPX2L_WC SEQ ID NO 2, PPX2L_AC SEQ ID NO 4, dG210 SEQ ID NO 6 & 8) (Amaranthus tuberculatus, UniProt Q0NZW9, D133A/F420I/R128H) (Q0NZW9 1-534 R128H/D133A/F420I): as the sequence (Q0NZW9 1-534 R128S/D133A/F420M) above, with S128H, M420I counted along it

[7] = molecular target: T3, recombinant wildtype and mutated PPO (Amaranthus PPO2: PPX2L_WC SEQ ID NO 2, PPX2L_AC SEQ ID NO 4, dG210 SEQ ID NO 6 & 8) (Amaranthus tuberculatus, UniProt Q0NZW9, D133A/F420I/R128I); details: IC50 (M)
T3 sequence (Q0NZW9 1-534 R128I/D133A/F420I): T1 sequence (Q0NZW9 1-534 R128A/F420L) with A128I, D133A, L420I

Question: How did the IC50 [1] turn out when `C#CCN1C(=O)C(F)(F)Oc2cc(F)c(N3C(=O)C4=C(CCCC4)C3=O)cc21` was run?
Answer: The IC50 was 11.4 µM.

Question: What about the IC50 [2] of the same molecule?
Answer: The IC50 was 0.000146 µM.

Question: How did the IC50 [3] turn out when `COC(=O)C(OC)Oc1ccccc1Oc1cc(-n2c(=O)cc(C(F)(F)F)n(C)c2=O)c(F)cc1Cl` (stereo not shown) was run?
Answer: Its IC50 is 3.62e-08 M.

Question: And the IC50 [1]?
Answer: Its IC50 is 0.047 µM.

Question: And the IC50 [4]?
Answer: Its IC50 is 4.76e-08 M.

Question: What about the IC50 [5] of the same molecule?
Answer: The IC50 was 6.93e-09 M.

Question: And the IC50 [6]?
Answer: The IC50 was 7.54e-08 M.

Question: What about the IC50 [7] of the same molecule?
Answer: Its IC50 is 2.27e-08 M.

Question: And the IC50 [2]?
Answer: The IC50 was 0.000411 µM.

Question: Which IC50 [3] does the source give for `COC(Oc1ccccc1Oc1cc(-n2c(=O)cc(C(F)(F)F)n(C)c2=O)c(F)cc1Cl)C(=O)OC1CCCCC1` (stereo not shown) here?
Answer: The IC50 was 5.24e-08 M.

Question: What about the IC50 [1] of the same molecule?
Answer: Its IC50 is 0.0937 µM.

Question: What about the IC50 [4] of the same molecule?
Answer: The IC50 was 5.14e-08 M.

Question: What about the IC50 [5] of the same molecule?
Answer: Its IC50 is 9.06e-08 M.

Question: What about the IC50 [6] of the same molecule?
Answer: The IC50 was 1.31e-06 M.

Question: And the IC50 [7]?
Answer: Its IC50 is 1.82e-06 M.

Question: Which results are given for `C#CCN1C(=O)C(F)(F)Oc2cc(F)c(-n3c(=O)cc(C(F)(F)F)n(C)c3=O)cc21`?
Answer: IC50 [1]: 0.0162 µM; IC50 [2]: 0.000315 µM

Question: `C#CCN1C(=O)C(F)(F)Oc2cc(F)c(-n3c(=O)n(C)c(=S)n(C)c3=O)cc21` was tested. Which IC50 [3] did it give?
Answer: Its IC50 is 2.4e-08 M.

Question: And the IC50 [4]?
Answer: Its IC50 is 1.26e-08 M.

Question: And the IC50 [5]?
Answer: The IC50 was 7.63e-08 M.

Question: What about the IC50 [6] of the same molecule?
Answer: Its IC50 is 8.22e-08 M.

Question: What about the IC50 [7] of the same molecule?
Answer: The IC50 was 1.38e-07 M.
